Results: US7659270B2, “Hepatitis C virus inhibitors” (Bristol-Myers Squibb Company, priority 2006, dated 2010)

System: HCV 1b-377-neo replicon cells
Assay: HCV replicon assay (HCV 1b-377-neo replicon cells)
Type: cell-based, Hepatitis C virus genotype 1b
Parameters: EC50 range against HCV 1b (Range): scale not given here
Conditions: not given
Procedure, shortened: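 HCV genotype 1b (1b-377-neo) replicon cells, run as a validated replicon assay; parallel testing in replicon cells carrying the NS5A Y2065H resistance mutation.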

Row | SMILES | EC50 range against HCV 1b (Range)
1 | COC(=O)N[C@H](C(=O)N1CCC[C@H]1c1ncc(-c2ccc(-c3ccc(-c4cnc([C@@H]5CCCN5C(=O)[C@@H](NC(=O)OC)C(C)C)[nH]4)cc3C(=O)O)cc2)[nH]1)C(C)C [Example M114, 4,4′-bis(2-((2S)-1-(N-(methoxycarbonyl)-L-valyl)-2-pyrrolidinyl)-1H-imidazol-5-yl)-2-biphenylcarboxylic acid] | >A
2 | COC(=O)N[C@H](C(=O)N1CCC[C@H]1c1ncc(-c2ccc(-c3ccc(-c4cnc([C@@H]5CCCN5C(=O)[C@@H](NC(=O)OC)C(C)C)[nH]4)cc3C(N)=O)cc2)[nH]1)C(C)C [Example M118, methyl((1S)-1-(((2S)-2-(5-(2′-carbamoyl-4′-(2-((2S)-1-((2S)-2-((methoxycarbonyl)amino)-3-methylbutanoyl)-2-pyrrolidinyl)-1H-imidazol-5-yl)-4-biphenylyl)-1H-imidazol-2-yl)-1-pyrrolidinyl)carbonyl)-2-methylpropyl)carbamate] | >A

Same assay, conditions: Hepatitis C virus, read-out: EC50 range against HCV 1b (Range)

Row | SMILES | EC50 [nM]
3 | COC(=O)N[C@H](C(=O)N1CCC[C@H]1c1ncc(-c2ccc(-c3ccc(-c4cnc([C@@H]5CCCN5C(=O)[C@@H](NC(=O)OC)C(C)C)[nH]4)cc3CO)cc2)[nH]1)C(C)C [Example M119, methyl((1S)-1-(((2S)-2-(5-(2-(hydroxymethyl)-4′-(2-((2S)-1-((2S)-2-((methoxycarbonyl)amino)-3-methylbutanoyl)-2-pyrrolidinyl)-1H-imidazol-5-yl)-4-biphenylyl)-1H-imidazol-2-yl)-1-pyrrolidinyl)carbonyl)-2-methylpropyl)carbamate] | 100 to 999
4 | COC(=O)N[C@H](C(=O)N1CCC[C@H]1c1ncc(-c2ccc(-c3ccc(-c4cnc([C@@H]5CCCN5C(=O)[C@@H](NC(=O)OC)C(C)C)[nH]4)cc3CN(C)C)cc2)[nH]1)C(C)C [Example M120, methyl((1S)-1-(((2S)-2-(5-(2-((dimethylamino)methyl)-4′-(2-((2S)-1-((2S)-2-((methoxycarbonyl)amino)-3-methylbutanoyl)-2-pyrrolidinyl)-1H-imidazol-5-yl)-4-biphenylyl)-1H-imidazol-2-yl)-1-pyrrolidinyl)carbonyl)-2-methylpropyl)carbamate] | 100 to 999
5 | COC(=O)N[C@@H](C(=O)N1CCC[C@H]1c1ncc(-c2ccc(-c3ccc(-c4cnc([C@@H]5CCCN5C(=O)[C@H](NC(=O)OC)c5ccccc5)[nH]4)cc3CN(C)C)cc2)[nH]1)c1ccccc1 [Example M121, dimethyl((2-((dimethylamino)methyl)-4,4′-biphenyldiyl)bis(1H-imidazole-5,2-diyl(2S)-2,1-pyrrolidinediyl((1R)-2-oxo-1-phenyl-2,1-ethanediyl)))biscarbamate] | 100 to 999
6 | COC(=O)N[C@H](C(=O)N1[C@H](c2ncc(-c3ccc(-c4ccc(-c5cnc([C@@H]6C[C@@H]7C[C@@H]7N6C(=O)[C@@H](NC(=O)OC)C(C)C)[nH]5)cc4)cc3)[nH]2)C[C@@H]2C[C@@H]21)C(C)C [Example M122, methyl((1S)-1-(((1S,3S,5S)-3-(5-(4′-(2-((1S,3S,5S)-2-((2S)-2-((methoxycarbonyl)amino)-3-methylbutanoyl)-2-azabicyclo[3.1.0]hex-3-yl)-1H-imidazol-5-yl)-4-biphenylyl)-1H-imidazol-2-yl)-2-azabicyclo[3.1.0]hex-2-yl)carbonyl)-2-methylpropyl)carbamate] | 1 to 99
7 | COC(=O)N[C@H](C(=O)N1CCC[C@H]1c1ncc(-c2ccc(-c3ccc(-c4cnc([C@@H]5CCCN5C(=O)[C@@H](Nc5ncccn5)C(C)C)[nH]4)cc3)cc2)[nH]1)C(C)C [cj-11, methyl((1S)-2-methyl-1-(((2S)-2-(5-(4′-(2-((2S)-1-(N-2-pyrimidinyl-L-valyl)-2-pyrrolidinyl)-1H-imidazol-5-yl)-4-biphenylyl)-1H-imidazol-2-yl)-1-pyrrolidinyl)carbonyl)propyl)carbamate] | 0.01 to 0.999
8 | COC(=O)N[C@H](C(=O)N1CCC[C@H]1c1ncc(-c2ccc(-c3ccc(-c4cnc([C@@H]5CCCN5C(=O)[C@@H](Nc5noc(N)n5)C(C)C)[nH]4)cc3)cc2)[nH]1)C(C)C [cj-16, methyl((1S)-1-(((2S)-2-(5-(4′-(2-((2S)-1-(N-(5-amino-1,2,4-oxadiazol-3-yl)-L-valyl)-2-pyrrolidinyl)-1H-imidazol-5-yl)-4-biphenylyl)-1H-imidazol-2-yl)-1-pyrrolidinyl)carbonyl)-2-methylpropyl)carbamate] | 0.01 to 0.999
9 | COC(=O)N[C@H](C(=O)N1CCC[C@H]1c1ncc(-c2ccc(-c3ccc(-c4cnc([C@@H]5CCCN5C(=O)[C@@H](NC(=NC#N)N(C)C)C(C)C)[nH]4)cc3)cc2)[nH]1)C(C)C [cj-17, methyl((1S)-1-(((2S)-2-(5-(4′-(2-((2S)-1-(N-(cyano(dimethyl)carbamimidoyl)-L-valyl)-2-pyrrolidinyl)-1H-imidazol-5-yl)-4-biphenylyl)-1H-imidazol-2-yl)-1-pyrrolidinyl)carbonyl)-2-methylpropyl)carbamate] | 0.01 to 0.999

Same assay, conditions: read-out: EC50 range against HCV 1b (Range)

Row | SMILES | EC50 [nM]
10 | CNCC(=O)N1CCC[C@H]1c1ncc(-c2ccc(-c3ccc(-c4cnc([C@@H]5CCCN5C(=O)[C@@H](NC(=O)OC)C(C)C)[nH]4)cc3)cc2)[nH]1 [LS20] | 0.01 to 0.999
11 | CCC(C)NCC(=O)N1CCC[C@H]1c1ncc(-c2ccc(-c3ccc(-c4cnc([C@@H]5CCCN5C(=O)[C@@H](NC(=O)OC)C(C)C)[nH]4)cc3)cc2)[nH]1 (some centres unmarked) [LS24] | 0.01 to 0.999
